Source: US9181258B2, “Substituted 3,4-dihydropyrrolo[1,2-a]pyrazin-1(2H)-ones as protein kinase inhibitors” (NERVIANO MEDICAL SCIENCES S.R.L., priority 2011, dated 2015)

What was measured:
MV-4-11 cells = experiment: In vitro cell proliferation assay (CellTiter-Glo), MV-4-11; format: cell-based; details: Homo sapiens, MV4-11, 72 hours
human PIM1 = human PIM1 (Homo sapiens (Human), UniProt P11309); experiment: Biochemical assay for inhibitors of PIM1 kinase activity (trans-phosphorylation, Dowex technique); details: ATP 200 μM, Aktide 25 μM, enzyme 1 nM; read-out: PIM-1 IC50
Chain of human PIM1 (P11309 whole entry): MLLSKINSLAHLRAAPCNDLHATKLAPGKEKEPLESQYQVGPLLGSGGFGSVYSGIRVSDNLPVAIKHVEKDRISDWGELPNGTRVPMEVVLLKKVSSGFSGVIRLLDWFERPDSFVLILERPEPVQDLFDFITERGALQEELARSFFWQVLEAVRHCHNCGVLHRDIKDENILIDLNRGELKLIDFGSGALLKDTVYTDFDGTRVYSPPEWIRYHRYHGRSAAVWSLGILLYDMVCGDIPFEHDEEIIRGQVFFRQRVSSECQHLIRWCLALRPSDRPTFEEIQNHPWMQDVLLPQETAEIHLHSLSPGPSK
Procedure, shortened: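 Full-length human PIM1 (1 nM) phosphorylates Aktide (25 μM) with 200 μM ATP plus 6 nM ^33P-γ-ATP in HEPES 50 mM pH 7.5, 10 mM MgCl2, 1 mM DTT, 3 μM NaVO3, 0.2 mg/mL BSA. Unreacted ATP captured on Dowex resin, supernatant β-counted; IC50 from ten-point 1:3 dilution sigmoidal fit.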

BaF3-PIM1 cells = experiment: In vitro cell proliferation assay (CellTiter-Glo), BaF3-PIM1; format: cell-based; details: 72 hours
human PIM2 = human PIM2 (Homo sapiens (Human), UniProt Q9P1W9); experiment: PIM2 kinase inhibition assay: Dowex technique; format: biochemical; details: ATP 4 μM, Aktide 5 μM, enzyme 1.5 nM; read-out: PIM-2 IC50
Chain of human PIM2 (Q9P1W9 whole entry): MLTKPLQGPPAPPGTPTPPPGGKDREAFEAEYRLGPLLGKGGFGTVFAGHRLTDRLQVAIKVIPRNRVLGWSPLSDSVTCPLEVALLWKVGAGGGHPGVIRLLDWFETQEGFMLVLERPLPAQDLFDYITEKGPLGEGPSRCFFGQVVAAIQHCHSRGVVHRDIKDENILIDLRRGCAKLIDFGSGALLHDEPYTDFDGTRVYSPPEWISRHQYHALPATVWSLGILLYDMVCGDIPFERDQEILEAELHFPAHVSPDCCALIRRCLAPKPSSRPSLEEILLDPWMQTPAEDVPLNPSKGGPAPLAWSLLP
Procedure, shortened: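 Full-length human PIM2 (1.5 nM) phosphorylated Aktide (5 μM) with 4 μM ATP plus 1 nM 33P-γ-ATP (final concentrations). Buffer: 50 mM HEPES pH 7.5, 1 mM MgCl2, 1 mM DTT, 3 μM Na3VO4, 0.2 mg/mL BSA. Radiolabel incorporation was read by the robotized Dowex method used for PIM1.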

## CS(=O)(=O)NCC[C@H]1CNC(=O)c2cc(-c3cccc(OC(F)(F)F)c3)c(-c3ccccc3)n21 [Compound 147, N-(2-{(4S)-1-oxo-6-phenyl-7-[3-(trifluoromethoxy)phenyl]-1,2,3,4-tetrahydropyrrolo[1,2-a]pyrazin-4-yl}ethyl)methanesulfonamide]
MV-4-11 cells
  IC50: 3.62 µM
Human PIM1
  IC50: 26 nM
BaF3-PIM1 cells
  IC50: 638 nM
Human PIM2
  IC50: 172 nM
